{"source": "patent US4293549A", "about": "“Quinolinyl guanidines having antiinflammatory, analgesic or antipyretic activity” (Leo Pharmaceutical Products Ltd. A/S (Lovens Kemiske Fabrik, priority 1977, dated 1981)", "key": {"[1]": {"tested_on": "pain threshold", "assay": "Analgetic effect in rats (Randall and Selitto)", "assay_type": "in vivo", "settings": "2 hrs after administration"}, "[2]": {"tested_on": "carrageenin induced edema", "assay": "Inhibition of carrageenin edema in rats", "assay_type": "in vivo", "settings": "1 hr before carrageenin", "method": "Inhibitory activity toward carrageenin induced edema was assessed in rats using the technique of Winter C. A., Risley E. A., Nuss C. […] The compounds were orally administered suspended in 0.5% carboxymethylcellulose to 18 hrs fasting animals, 1 hr before the injection of carrageenin."}, "[3]": {"tested_on": "adjuvant induced arthritis", "assay": "Inhibition of adjuvant induced arthritis in rats", "assay_type": "in vivo", "excerpt": "The compounds were orally administered suspended in 0.5% carboxymethylcellulose, daily, from the day of adjuvant injection to 28 days later."}, "[4]": {"tested_on": "stomachs", "assay": "Gastro ulcerogenic activity in rats", "assay_type": "in vivo", "settings": "24 hrs; for Mean severity: scale 0=no lesion to +4=perforation", "method": "Rats fasted for 9 hrs before treatment were given different doses of the compounds. 24 hrs later the animals were killed, the stomachs were removed, opened along the lesser curvature and gross examined for the presence of lesions and their severity. The severity was assessed according to an arbitrary scale from 0=no lesion to +4=perforation."}, "[5]": {"assay": "Acute toxicity in mice after oral administration", "settings": "mouse, in vivo, p.os, mortality assessed eight days after administration, read-out: LD50 (with confidence limits)", "method": "The acute toxicity was determined in mice after oral administration. The mortality was assessed eight days after the administration and the LD50 (dose causing the death of 50% of the animals treated) was calculated according to the statistical method of Litchfield and Wilcoxon (J.Pharmacol.Exp.Ther. 96, 99, (1949))."}, "[6]": {"assay": "Antipyretic effect in rats", "assay_type": "in vivo", "settings": "over 180 min", "method": "The compounds were orally administered and the antipyretic index evaluated over 180 min. of the experiment."}, "[7]": {"biological_target": "T1, prostaglandin synthetase (Bos taurus, UniProt O62664)", "T1 construct": "lyophilized high speed precipitate of bovine seminal vesicle homogenate as enzyme; from tissue; host or cells: bovine seminal vesicle homogenate, lyophilized high speed precipitate", "T1 sequence (O62664 25-600)": "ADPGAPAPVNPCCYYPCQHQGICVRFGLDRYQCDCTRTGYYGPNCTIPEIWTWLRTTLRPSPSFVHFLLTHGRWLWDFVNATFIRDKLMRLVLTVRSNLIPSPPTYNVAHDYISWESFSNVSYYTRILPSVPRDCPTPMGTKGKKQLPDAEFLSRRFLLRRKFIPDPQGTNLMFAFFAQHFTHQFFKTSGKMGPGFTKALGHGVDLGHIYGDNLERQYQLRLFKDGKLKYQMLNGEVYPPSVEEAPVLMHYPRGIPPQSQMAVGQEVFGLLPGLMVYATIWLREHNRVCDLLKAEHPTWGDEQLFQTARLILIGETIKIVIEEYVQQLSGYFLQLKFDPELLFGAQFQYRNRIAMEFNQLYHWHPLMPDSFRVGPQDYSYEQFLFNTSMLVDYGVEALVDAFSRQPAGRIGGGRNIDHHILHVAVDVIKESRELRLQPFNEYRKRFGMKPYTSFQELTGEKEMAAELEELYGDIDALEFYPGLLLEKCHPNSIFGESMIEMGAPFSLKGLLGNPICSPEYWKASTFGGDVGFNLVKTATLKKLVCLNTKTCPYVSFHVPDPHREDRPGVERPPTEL", "assay": "Inhibition of prostaglandin synthetase (bovine seminal vesicle homogenate)", "assay_type": "biochemical", "settings": "lyophilized high speed precipitate of bovine seminal vesicle homogenate"}}}
{"smiles": "COc1ccc2c(c1)c(CC(=O)O)c(C)n2C(=O)c1ccc(Cl)cc1", "note": "[Indomethacin, reference compound]", "values": [{"measurement": "Increase of pain threshold", "setting": "[1]; oral dose 1 mg/kg", "value": 19, "unit": "mmHg"}, {"measurement": "Increase of pain threshold", "setting": "[1]; oral dose 3 mg/kg", "value": 34, "unit": "mmHg"}, {"measurement": "% Inhibition 3 hrs after carrageenin", "setting": "[2]; oral dose 0.5 mg/kg", "value": 34, "unit": "%"}, {"measurement": "% Inhibition 3 hrs after carrageenin", "setting": "[2]; oral dose 1 mg/kg", "value": 42, "unit": "%"}, {"measurement": "% Inhibition 3 hrs after carrageenin", "setting": "[2]; oral dose 10 mg/kg", "value": 65, "unit": "%"}, {"measurement": "% Inhibition of the swelling, 18th day, primary", "setting": "[3]; daily oral dose 0.3 mg/kg", "value": 20.3, "unit": "%"}, {"measurement": "% Inhibition of the swelling, 18th day, secondary", "setting": "[3]; daily oral dose 0.3 mg/kg", "value": 13.5, "unit": "%"}, {"measurement": "% Inhibition of the swelling, 28th day, primary", "setting": "[3]; daily oral dose 0.3 mg/kg", "value": 25.9, "unit": "%"}, {"measurement": "% Inhibition of the swelling, 28th day, secondary", "setting": "[3]; daily oral dose 0.3 mg/kg", "value": 29.7, "unit": "%"}, {"measurement": "% Inhibition of the swelling, 18th day, primary", "setting": "[3]; daily oral dose 1 mg/kg", "value": 62.4, "unit": "%"}, {"measurement": "% Inhibition of the swelling, 18th day, secondary", "setting": "[3]; daily oral dose 1 mg/kg", "value": 66.2, "unit": "%"}, {"measurement": "% Inhibition of the swelling, 28th day, primary", "setting": "[3]; daily oral dose 1 mg/kg", "value": 80.5, "unit": "%"}, {"measurement": "% Inhibition of the swelling, 28th day, secondary", "setting": "[3]; daily oral dose 1 mg/kg", "value": 76.8, "unit": "%"}, {"measurement": "% with lesions", "setting": "[4]; oral dose 5 mg/kg", "value": 20, "unit": "%"}, {"measurement": "Mean severity", "setting": "[4]; oral dose 5 mg/kg", "value": 1.3}, {"measurement": "% with lesions", "setting": "[4]; oral dose 10 mg/kg", "value": 70, "unit": "%"}, {"measurement": "Mean severity", "setting": "[4]; oral dose 10 mg/kg", "value": 2.8}, {"measurement": "LD50 at 192 h", "setting": "[5]", "value": 23, "unit": "mg/kg"}]}
{"smiles": "Cc1cc(/N=C(\\Nc2nccs2)NC2CCCCC2)c2ccccc2n1", "note": "[SR 1368, N-Cyclohexyl-N\"-4-(2-methylquinolyl)-N'-2-thiazolylguanidine]", "values": [{"measurement": "Increase of pain threshold", "setting": "[1]; oral dose 10 mg/kg", "value": 12, "unit": "mmHg"}, {"measurement": "Increase of pain threshold", "setting": "[1]; oral dose 30 mg/kg", "value": 31, "unit": "mmHg"}, {"measurement": "Increase of pain threshold", "setting": "[1]; oral dose 90 mg/kg", "value": 68, "unit": "mmHg"}, {"measurement": "Antipyretic index", "setting": "[6]; oral dose 25 mg/kg", "value": 2.2}, {"measurement": "Antipyretic index", "setting": "[6]; oral dose 50 mg/kg", "value": 5.6}, {"measurement": "% Inhibition 3 hrs after carrageenin", "setting": "[2]; oral dose 25 mg/kg", "value": 40, "unit": "%"}, {"measurement": "% Inhibition 3 hrs after carrageenin", "setting": "[2]; oral dose 50 mg/kg", "value": 62, "unit": "%"}, {"measurement": "% Inhibition 3 hrs after carrageenin", "setting": "[2]; oral dose 100 mg/kg", "value": 71, "unit": "%"}, {"measurement": "% Inhibition of the swelling, 18th day, primary", "setting": "[3]; daily oral dose 5 mg/kg", "value": 23.5, "unit": "%"}, {"measurement": "% Inhibition of the swelling, 18th day, secondary", "setting": "[3]; daily oral dose 5 mg/kg", "value": 14.9, "unit": "%"}, {"measurement": "% Inhibition of the swelling, 28th day, primary", "setting": "[3]; daily oral dose 5 mg/kg", "value": 21.4, "unit": "%"}, {"measurement": "% Inhibition of the swelling, 28th day, secondary", "setting": "[3]; daily oral dose 5 mg/kg", "value": 32.1, "unit": "%"}, {"measurement": "% Inhibition of the swelling, 18th day, primary", "setting": "[3]; daily oral dose 10 mg/kg", "value": 29.2, "unit": "%"}, {"measurement": "% Inhibition of the swelling, 18th day, secondary", "setting": "[3]; daily oral dose 10 mg/kg", "value": 54.4, "unit": "%"}, {"measurement": "% Inhibition of the swelling, 28th day, primary", "setting": "[3]; daily oral dose 10 mg/kg", "value": 42.7, "unit": "%"}, {"measurement": "% Inhibition of the swelling, 28th day, secondary", "setting": "[3]; daily oral dose 10 mg/kg", "value": 68.7, "unit": "%"}, {"measurement": "% Inhibition of the swelling, 18th day, primary", "setting": "[3]; daily oral dose 30 mg/kg", "value": 44.2, "unit": "%"}, {"measurement": "% Inhibition of the swelling, 18th day, secondary", "setting": "[3]; daily oral dose 30 mg/kg", "value": 53.2, "unit": "%"}, {"measurement": "% Inhibition of the swelling, 28th day, primary", "setting": "[3]; daily oral dose 30 mg/kg", "value": 69.4, "unit": "%"}, {"measurement": "% Inhibition of the swelling, 28th day, secondary", "setting": "[3]; daily oral dose 30 mg/kg", "value": 69.2, "unit": "%"}, {"measurement": "% Inhibition of the swelling, 18th day, primary", "setting": "[3]; daily oral dose 60 mg/kg", "value": 51.6, "unit": "%"}, {"measurement": "% Inhibition of the swelling, 18th day, secondary", "setting": "[3]; daily oral dose 60 mg/kg", "value": 73.4, "unit": "%"}, {"measurement": "% Inhibition of the swelling, 28th day, primary", "setting": "[3]; daily oral dose 60 mg/kg", "value": 74.2, "unit": "%"}, {"measurement": "% Inhibition of the swelling, 28th day, secondary", "setting": "[3]; daily oral dose 60 mg/kg", "value": 82.6, "unit": "%"}, {"measurement": "IC50", "setting": "[7]", "value": 2460, "unit": "nM"}, {"measurement": "% with lesions", "setting": "[4]; oral dose 25 mg/kg", "value": 0, "unit": "%"}, {"measurement": "Mean severity", "setting": "[4]; oral dose 25 mg/kg", "value": 0}, {"measurement": "% with lesions", "setting": "[4]; oral dose 50 mg/kg", "value": 20, "unit": "%"}, {"measurement": "Mean severity", "setting": "[4]; oral dose 50 mg/kg", "value": 0.9}, {"measurement": "% with lesions", "setting": "[4]; oral dose 100 mg/kg", "value": 40, "unit": "%"}, {"measurement": "Mean severity", "setting": "[4]; oral dose 100 mg/kg", "value": 1.7}, {"measurement": "LD50 at 192 h", "setting": "[5]", "value": "> 1000", "unit": "mg/kg"}]}
